From ChEMBL document CHEMBL1159185, “Metabolism and structure activity data based drug design: discovery of () SCH 53079 an analog of the potent cholesterol absorption inhibitor () SCH 48461” (1996) come the findings set out here.

For assay [1], the species on record is Rattus norvegicus. Description: Compound was evaluated for the plasma concentration in female rats at 8 hr after post dose. The format is functional, organism-based.
For assay [2], the species on record is Rattus norvegicus. Description: Compound was evaluated for the plasma concentration in female rats at 24 hr after post dose. The format is functional, organism-based.
The species entered for assay [3] is Rattus norvegicus. Description: Compound was evaluated for the plasma concentration in female rats at 4 hr after post dose. The format is functional, organism-based.
The species named for assay [4] is Rattus norvegicus. Description: Compound was evaluated for the plasma concentration in female rats at 1 hr after post dose. The format is functional, organism-based.
The species entered for assay [5] is Rattus norvegicus. Description: Compound was evaluated for the plasma concentration in female rats at 2 hr after post dose. Format: functional, organism-based.
Assay [6] has as its system Cricetinae gen. sp. Description: Compound was evaluated for the reduction of liver cholesterol ester levels in the cholesterol-fed Hamster model at 50 mg/kg. Format: functional.
The test system of assay [7] is Cricetinae gen. sp. Description: Compound was evaluated for the reduction of liver cholesterol ester levels in the cholesterol-fed Hamster model. The format is functional.
The test system of the next assay is Monkey. Description: Compound was evaluated for the reduction of liver cholesterol ester levels in the cholesterol-fed rhesus monkey model. Format: functional, Cercopithecidae.
The subject of assay [8] is Cricetinae gen. sp. Description: Compound was evaluated for the reduction of liver cholesterol ester levels in the cholesterol-fed Hamster model at 50 mpk. Format: functional.

As to `COc1ccc([C@@H]2[C@@H](CCOc3ccc(F)cc3)C(=O)N2c2ccccc2)cc1` (stereo in doubt; (-)4) [listing 1 of 2 here], the Plasma level in the assay filed under Rattus norvegicus [1] is 239 ng/mL; in the assay listed under Rattus norvegicus [2], less than 30 ng/mL; in the assay filed under Rattus norvegicus [3], less than 30 ng/mL; in the assay filed under Rattus norvegicus [4] it was greater than 30 ng/mL; in the assay filed under Rattus norvegicus [5], 41.1 ng/mL.

Broadly, the ED50 is the dose that gives a 50% effect, or the effect in half of the subjects. `COc1ccc([C@@H]2[C@@H](CCOc3ccc(F)cc3)C(=O)N2c2ccccc2)cc1` (stereo in doubt; (-)4) [listing 2 of 2 here]: in the assay on Cricetinae gen. sp. [6] (50 mg/kg), the Reduction is -93%. The same compound yielded an ED50 in the assay on Cricetinae gen. sp. [7] of 2.2 mg/kg. The compound further registered an ED100 with Monkey of 0.3 MPK.

With `COc1ccc([C@@H]2[C@@H](CCOc3ccc(I)cc3)C(=O)N2c2ccccc2)cc1` (racemic), the Reduction in the assay on Cricetinae gen. sp. [6] is -47%.

Take `COc1ccc([C@@H]2[C@@H](CCOc3ccc(F)cc3)C(=O)N2c2ccc(OC)cc2)cc1` (racemic): in the assay on Cricetinae gen. sp. [6], the Reduction is given as -93%.

Take `COc1ccc([C@@H]2[C@@H](CCCc3ccccc3)C(=O)N2c2ccc(OC)cc2)cc1` (racemic) [SCH-48461]: the Reduction in the assay on Cricetinae gen. sp. [8] is -78%.

As to `COc1ccc([C@@H]2[C@@H](CCOc3ccc4c(c3)CCC4)C(=O)N2c2ccccc2)cc1` (racemic), in the assay with Cricetinae gen. sp. [6], the Reduction is -46%.

On to `COc1ccc([C@@H]2[C@@H](CCOc3ccc([N+](=O)[O-])cc3)C(=O)N2c2ccccc2)cc1`, for which the Reduction in the assay on Cricetinae gen. sp. [6] was -31%.

In the case of `COc1ccc(OCC[C@H]2C(=O)N(c3ccccc3)[C@@H]2c2ccc(OC)cc2)cc1`, the Reduction with Cricetinae gen. sp. [6] was -82%.

`COc1ccc([C@@H]2[C@@H](CCOc3ccc(F)cc3)C(=O)N2c2ccccc2)cc1` (stereo in doubt; (+/-)4): the Reduction with Cricetinae gen. sp. [6] (50 mg/kg) is -95%.

`COc1ccc([C@@H]2[C@@H](CCCc3ccccc3)C(=O)N2c2ccc(OC)cc2)cc1` [SCH-48461]: in the assay with Monkey, the ED100 amounted to 1 MPK.

Take `COc1ccc([C@@H]2[C@@H](CCOc3ccccc3)C(=O)N2c2ccc(OC)cc2)cc1`: the Reduction in the assay on Cricetinae gen. sp. [6] is -39%.

`COc1ccc([C@@H]2[C@@H](CCOc3ccc(F)cc3)C(=O)N2c2ccccc2)cc1` (stereo in doubt; (+)4): the Reduction with Cricetinae gen. sp. [6] (50 mg/kg) is listed as -28%.

Take `COc1ccc([C@@H]2[C@@H](CCOc3ccc(F)cc3F)C(=O)N2c2ccccc2)cc1`: the Reduction in the assay with Cricetinae gen. sp. [6] was -88%.
